Data as given in US11008339B2, “Substituted pyrazole compounds containing pyrimidine and preparation method and use thereof” (Shenyang Sinochem Agrochemicals R&D Co., Ltd., priority 2015, dated 2021).
Read-outs that look alike come from different tables or passages of the source.

Tests used:
[1] = test system: rice blast; assay: microbe, parasite or virus in culture; assay type: cell-based; conditions: Pyricularia oryzae, 24 h, read-out: inhibition rate against rice blast
[2] = test system: Green peach aphids (Myzus Persicae Sulzer); assay: Bioactivity test against green peach aphid (airbrush foliar spray); assay type: in vivo; conditions: 100 mg/L, contrastive test (Table 134)
Protocol: (§1) Compounds were dissolved in mixed solvent (acetone:methanol=1:1), and diluted to required concentration with water containing 0.1% of tween 80.
(§2) Diamond back moth, armyworm, peach aphid and carmine spider mite were used as targets and the method of spraying by airbrush was used for determination of insecticidal biassays.
Method: Filter papers were put in culture dishes (Diameter=6 cm), and water was dripped on filter papers for preserving moisture. Green peach aphids (Myzus Persicae Sulzer) were maintained on cabbage. Leaves (Diameter=3 cm) of approximately 15-30 aphids were put in the culture dishes. Bioactivity tests were used the method of Airbrush Foliar Spray, pressure=10 psi (0.7 kg/cm2), spray volume=0.5 mL. The studies were conducted at […] 25±1 C in incubator cabinets with 60±5% RH. Survey the survival aphids after 48 h and calculate the death rates.

[3] = test system: diamond back moth; assay: Bioactivity test against diamond back moth (airbrush spray, leaf disc); assay type: in vivo; conditions: for Insecticidal activity against diamond back moth (%): 600 mg/L, contrastive test (Table 133)
Protocol: as §1, §2
The method of spraying by airbrush: The cabbage leaves were made into plates of 2 cm diameter by use of punch. A test solution (0.5 ml) was sprayed by airbrush at the pressure of 0.7 kg/cm^2 to both sides of every plate. 10 Second instar larvae were put into the petri-dishes after the leaf disc air-dried and 3 replicates were set for each treatment. Then the insects were maintained in observation room (25° C., 60˜70% R.H.). Scores were conducted and mortalities were calculated after 72 h.

[4] = test system: cucumber downy mildew; assay: Protective activity in vivo (whole plant spray) against cucumber downy mildew; conditions: for inhibition at 25 µg/mL: Cucumis sativus, read-out: protective activity (%) against cucumber downy mildew
Protocol: (§3) The method is as followed: The whole plant is used in this test. The compound is dissolved in a proper solvent to get mother solution. The proper solvent is selected from acetone, methanol, DMF and so on according to their dissolving capability to the sample. The volume rate of solvent and testing solution (v/v) is equal to or less than 5%. […] The testing solution is sprayed to the host plant by a special plant sprayer. The plant is inoculated with fungus after 24 hours. According to the infecting characteristic of fungus, the plant is stored in a humidity chamber and then transferred into greenhouse after infection is finished. And the other plants are placed in greenhouse directly.

[5] = test system: cucumber gray mold; assay: Fungicidal activity in vitro (96-well, inhibition rate) against cucumber gray mold; assay type: cell-based; conditions: 24 hours
[6] = test system: wheat powdery mildew; assay: Protective activity in vivo (whole plant spray) against wheat powdery mildew; conditions: 100 mg/L, comparative test (Table 130); for inhibition at 100 µg/mL: Triticum aestivum
Protocol: as §3

[7] = test system: corn rust; assay: Protective activity in vivo (whole plant spray) against corn rust; conditions: comparative test (Table 131)
Protocol: as §3

[8] = test system: carmine spider mite; assay: Bioactivity test against carmine spider mite (airbrush spray); assay type: in vivo; conditions: contrastive test (Table 135)
Protocol: as §1, §2
The method: Broadbean shoots with two true leaves in pot were taken, the healthy adults of carmine spider mite were inoculated to the leaves. The adults were counted and then sprayed with airbrush at the pressure of 0.7 kg/cm^2 and at dose of 0.5 ml. 3 replicates were set for each treatment. And then they were maintained in standard observation room. Scores were conducted and mortalities were calculated after 72 hrs.

[9] = test system: cucumber anthracnose; assay: Protective activity in vivo (whole plant spray) against cucumber anthracnose; conditions: for inhibition at 100 µg/mL: Cucumis sativus, read-out: protective activity (%) against cucumber anthracnose; for control against cucumber anthracnose: 6.25 ppm, protective, in vivo
Protocol: as §3

[10] = 25 mg/L, comparative test (Table 129)
[11] = 100 mg/L, comparative test (Table 132)

For CCc1ncnc(NCc2cnn(-c3ccccc3)c2C)c1Cl [CK1], the inhibition at 25 ppm [1] was 0%, the “Insecticidal activity against peach aphid (%)” value [2] was 0% and the “Insecticidal activity against diamond back moth (%)” value [3] was 43%. It also gave an inhibition at 25 µg/mL [4, 10] of 20% and an inhibition at 25 ppm [5] of 0%.

For CCc1ncnc(NCc2cnn(-c3ccccc3)c2C(F)(F)F)c1Cl [CK2], the inhibition at 25 ppm [1] was 0%, the “Insecticidal activity against diamond back moth (%)” value [3] was 20% and the inhibition at 100 µg/mL [6] was 50%. The inhibition at 25 µg/mL [4, 10] was 20% and the inhibition at 25 ppm [5] was 0%.

In the case of Cc1nc(C)c(C)c(N(C)Cc2cnn(-c3ccccc3)c2)n1 [CK3], the inhibition at 25 ppm [1] is reported as 0%, the “Insecticidal activity against peach aphid (%)” value [2] is reported as 30% and the “control effect against corn rust (%)” value ([7]; 25 mg/L) is reported as 0%. The “control effect against corn rust (%)” value ([7]; 100 mg/L) was 20%, the “Insecticidal activity against carmine spider mite (%)” value ([8]; 600 mg/L) was 56% and the “Insecticidal activity against diamond back moth (%)” value [3] was 0%. It also gave an inhibition at 100 µg/mL [6] of 0%, an inhibition at 25 µg/mL [4, 10] of 0% and an inhibition at 100 µg/mL [9, 11] of 0%. For the same molecule, the inhibition at 25 ppm [5] was 0%.

For Cc1cc(N(C)Cc2cnn(-c3ccccc3)c2)nc(C(C)C)n1 [CK4], the inhibition at 25 ppm [1] was 0%, the “Insecticidal activity against peach aphid (%)” value [2] was 0% and the “control effect against corn rust (%)” value ([7]; 25 mg/L) was 0%. The “control effect against corn rust (%)” value ([7]; 100 mg/L) was 0%, the “Insecticidal activity against carmine spider mite (%)” value ([8]; 600 mg/L) was 59% and the “Insecticidal activity against diamond back moth (%)” value [3] was 0%. For the same molecule, the inhibition at 100 µg/mL [6] was 0%, the inhibition at 25 µg/mL [4, 10] was 0% and the inhibition at 100 µg/mL [9, 11] was 0%. For the same molecule, the inhibition at 25 ppm [5] was 0%.

In the case of Cc1cc(N(C)Cc2c(C)nn(-c3ccccc3)c2C)nc(C)n1 [CK5], the inhibition at 25 ppm [1] is reported as 0%, the “Insecticidal activity against peach aphid (%)” value [2] is reported as 22% and the “control effect against corn rust (%)” value ([7]; 25 mg/L) is reported as 60%. For the same molecule, the “control effect against corn rust (%)” value ([7]; 100 mg/L) was 70%, the “Insecticidal activity against carmine spider mite (%)” value ([8]; 600 mg/L) was 58% and the “Insecticidal activity against diamond back moth (%)” value [3] was 0%. It also gave an inhibition at 100 µg/mL [6] of 0%, an inhibition at 25 µg/mL [4, 10] of 0% and an inhibition at 100 µg/mL [9, 11] of 0%. It also gave an inhibition at 25 ppm [5] of 0%.

Cc1ncnc(NCCOc2ccn(-c3ccc(Cl)cc3)n2)c1Cl [Compound 31-19] showed an inhibition at 25 µg/mL [4] of 100% and an inhibition at 100 µg/mL [9] of 90%.

In the case of Cc1ncnc(NCCOc2ccn(-c3c(Cl)cccc3Cl)n2)c1Cl [Compound 31-23], the “protective activity (%) against cucumber downy mildew” value [4, 10] is reported as 100%.

In the case of Cc1ncnc(NCCOc2ccn(-c3c(Cl)cc(Cl)cc3Cl)n2)c1Cl [Compound 31-30], the “protective activity (%) against wheat powdery mildew” value [6] is reported as 98% and the “protective activity (%) against cucumber downy mildew” value [4, 10] is reported as 100%.

For CCc1ncnc(NCCOc2ccn(-c3c(Cl)cc(Cl)cc3Cl)n2)c1Cl [Compound 32-30], the “protective activity (%) against wheat powdery mildew” value [6] was 100% and the “protective activity (%) against cucumber downy mildew” value [4, 10] was 100%.

With CC(COc1ccn(-c2ccc(Cl)cc2)n1)Nc1ncnc(Cl)c1Cl (stereo not drawn) [Compound 35-19] the “protective activity (%) against wheat powdery mildew” value [6] was 70% and the “protective activity (%) against cucumber downy mildew” value [4, 10] was 100%.

For CCc1ncnc(NC(C)COc2ccn(-c3ccc(Cl)cc3)n2)c1Cl (stereo not drawn) [Compound 37-19], the “Insecticidal activity against peach aphid (%)” value [2] was 84%, the “control effect against corn rust (%)” value ([7]; 25 mg/L) was 90% and the “control effect against corn rust (%)” value ([7]; 100 mg/L) was 100%. For the same molecule, the “Insecticidal activity against carmine spider mite (%)” value ([8]; 100 mg/L) was 100%, the “Insecticidal activity against carmine spider mite (%)” value ([8]; 600 mg/L) was 100% and the “Insecticidal activity against diamond back moth (%)” value [3] was 100%. The “control against diamond back moth” value ([3]; 600 ppm, mortality after 72 h) was 100% and the “protective activity (%) against wheat powdery mildew” value [6] was 95%.

For c1ccc(-n2ccc(OCCNc3ncnc4ccccc34)n2)cc1 [Compound 40-1], the “protective activity (%) against cucumber downy mildew” value [4, 10] was 70%.

For Fc1ccc(-n2ccc(OCCNc3ncnc4ccccc34)n2)cc1 [Compound 40-4], the “protective activity (%) against cucumber downy mildew” value [4, 10] was 100%.

For Clc1ccccc1-n1ccc(OCCNc2ncnc3ccccc23)n1 [Compound 40-17], the inhibition at 25 µg/mL [4] was 70% and the melting point was 186.6 °C.

In the case of Clc1cccc(-n2ccc(OCCNc3ncnc4ccccc34)n2)c1 [Compound 40-18], the “protective activity (%) against cucumber downy mildew” value [4, 10] is reported as 100%.

For Clc1ccc(-n2ccc(OCCNc3ncnc4ccccc34)n2)cc1 [Compound 40-19], the “protective activity (%) against cucumber downy mildew” value [4, 10] was 96% and the “protective activity (%) against cucumber anthracnose” value [9, 11] was 100%.

In the case of Clc1ccc(-n2ccc(OCCNc3ncnc4ccccc34)n2)c(Cl)c1 [Compound 40-21], the “protective activity (%) against cucumber downy mildew” value [4, 10] is reported as 100%.

With Clc1cc(Cl)c(-n2ccc(OCCNc3ncnc4ccccc34)n2)c(Cl)c1 [Compound 40-30] the “protective activity (%) against cucumber downy mildew” value [4, 10] was 100%.

In the case of Cc1ccc(-n2ccc(OCCNc3ncnc4ccccc34)n2)cc1 [Compound 40-57], the “protective activity (%) against cucumber anthracnose” value [9, 11] is reported as 98% and the “control against cucumber anthracnose” value [9] is reported as 90%.

For Clc1csc2ncnc(NCCOc3ccn(-c4ccccc4)n3)c12 [Compound 42-1], the “protective activity (%) against cucumber downy mildew” value [4, 10] was 100%, the “protective activity (%) against cucumber anthracnose” value [9, 11] was 95% and the “control against cucumber anthracnose” value [9] was 90%.

With Clc1ccccc1-n1ccc(OCCNc2ncnc3scc(Cl)c23)n1 [Compound 42-17] the “protective activity (%) against cucumber downy mildew” value [4, 10] was 100%.

With Clc1cccc(-n2ccc(OCCNc3ncnc4scc(Cl)c34)n2)c1 [Compound 42-18] the “protective activity (%) against cucumber downy mildew” value [4, 10] was 100%.

In the case of Clc1ccc(-n2ccc(OCCNc3ncnc4scc(Cl)c34)n2)c(Cl)c1 [Compound 42-21], the “protective activity (%) against cucumber downy mildew” value [4, 10] is reported as 100%.

For FC(F)(F)c1ccc(-n2ccc(OCCNc3ncnc4scc(Cl)c34)n2)cc1 [Compound 42-69], the “control effect against corn rust (%)” value ([7]; 25 mg/L) was 85%, the “control effect against corn rust (%)” value ([7]; 100 mg/L) was 90% and the “protective activity (%) against wheat powdery mildew” value [6] was 100%. For the same molecule, the “protective activity (%) against cucumber downy mildew” value [4, 10] was 80% and the “protective activity (%) against cucumber anthracnose” value [9, 11] was 95%.

For CC(COc1ccn(-c2ccc(Cl)cc2)n1)Nc1ncnc2scc(Cl)c12 (stereo not drawn) [Compound 44-19], the inhibition at 2.8 ppm [1] was > 80%, the inhibition at 8.3 ppm [1] was > 80% and the inhibition at 25 ppm [1] was > 80%. The “Insecticidal activity against carmine spider mite (%)” value ([8]; 100 mg/L) was 100%, the “Insecticidal activity against carmine spider mite (%)” value ([8]; 600 mg/L) was 100% and the inhibition at 100 µg/mL [6] was 100%. The inhibition at 25 µg/mL [4, 10] was 100% and the inhibition at 25 ppm [5] was > 80%.

In the case of Cc1c(Cl)ncnc1NCCCOc1ccn(-c2ccc(C(F)(F)F)cc2)n1 [Compound 122-69], the “protective activity (%) against wheat powdery mildew” value [6] is reported as 100% and the “protective activity (%) against cucumber anthracnose” value [9, 11] is reported as 85%.

In the case of COc1c(Cl)ncnc1NCCCOc1ccn(-c2ccc(C(F)(F)F)cc2)n1 [Compound 123-69], the “protective activity (%) against wheat powdery mildew” value [6] is reported as 100% and the “protective activity (%) against cucumber anthracnose” value [9, 11] is reported as 90%.

In the case of CCc1ncnc(NCCCOc2ccn(-c3ccc(C(F)(F)F)cc3)n2)c1Cl [Compound 125-69], the “protective activity (%) against wheat powdery mildew” value [6] is reported as 100%.

For FC(F)c1ncnc(NCCCOc2ccn(-c3ccc(C(F)(F)F)cc3)n2)c1Cl [Compound 126-69], the “protective activity (%) against wheat powdery mildew” value [6] was 100%, the “protective activity (%) against cucumber downy mildew” value [4, 10] was 70% and the “protective activity (%) against cucumber anthracnose” value [9, 11] was 95%.

For FC(F)(F)c1ccc(-n2ccc(OCCCNc3ncnc4ccccc34)n2)cc1 [Compound 127-69], the “protective activity (%) against wheat powdery mildew” value [6] was 100%, the “protective activity (%) against cucumber downy mildew” value [4, 10] was 70% and the “protective activity (%) against cucumber anthracnose” value [9, 11] was 92%.

With FC(F)(F)c1ccc(-n2ccc(OCCCNc3ncnc4scc(Cl)c34)n2)cc1 [Compound 128-69] the “protective activity (%) against wheat powdery mildew” value [6] was 100%.
